Where only a bound is given, the exact number is not on record here.

For data set [1], the system named is Dirofilaria immitis third-stage larvae. The experiment in a line: In vitro assay 4: Dirofilaria immitis (DIROIM L4), motility of larvae. The following applies: 72 h.
Data set [2] can be described thus: log P by HPLC on reversed phase columns (Method L0; [a] acidic, [b] neutral range).
Procedure: Calibration was done with straight-chain alkan-2-ones (with 3 to 16 carbon atoms) with known log P values (measurement of log P values using retention times with linear interpolation between successive alkanones). Lambda-max-values were determined using UV-spectra from 200 nm to 400 nm and the peak values of the chromatographic signals.
Data set [3] concerns Nippostrongylus brasiliensis. The experiment in a line: In vitro assay 2: Nippostrongylus brasiliensis (NIPOBR), acetylcholine esterase readout. The following applies: adult worms, read-out: activity (reduction of AChE compared to negative control); for inhibition at 10 µg/mL: 10 μg/ml (10 ppm); for inhibition at 1 µg/mL: 1 μg/ml (1 ppm). On the procedure: In Vitro Assay 2: Nippostronqylus Brasiliensis (NIPOBR)
Adult Nippostrongylus brasiliensis were washed with saline buffer containing 100 U/ml penicillin, 0.1 mg/ml streptomycin and 2.5 μg/ml amphotericin B. Test compounds were dissolved in DMSO and worms were incubated in medium in a final concentration of 10 μg/ml (10 ppm) respectively 1 μg/ml (1 ppm). An aliquot of the medium was used to determine the acetylcholine esterase activity in comparison to a negative control. The principle of measuring acetylcholine esterase as readout for anthelmintic activity was described in Rapson et al (1986) and Rapson et al (1987).

The test system of data set [4] is Haemonchus contortus. The data set can be described thus: In vitro assay 6: Haemonchus contortus (HAEMCO), larval mortality. As to conditions: for mortality at 4 ppm / mortality at 20 ppm: Haemonchus contortus, 120 h, read-out: activity (percentage of larval mortality).
Procedure: In Vitro Assay 6: Haemonchus contortus (HAEMCO)
Solvent: dimethyl sulfoxide
Approximately 40 larvae of the red stomach worm (Haemonchus contortus) are transferred into a test tube containing compound solution.
After 5 days the percentage of larval mortality is recorded. 100% efficacy means all larvae are killed, 0% efficacy means no larvae are killed.
Data set [5] deals with C. elegans Slo-1a (Caenorhabditis elegans, UniProt Q95V25). The experiment in a line: In vitro assay 1: C. elegans Slo-1a, action at a recombinant C. elegans CHO cell line (membrane potential measurement).
In data set [6] the test system is Dirofilaria immitis microfilariae. The experiment in a line: In vitro assay 3: Dirofilaria immitis microfilariae (DIROIM L1), motility. As to conditions: 72 h, reduction of motility vs negative control, 72 h incubation.
Data set [7] relates to Litomosoides sigmodontis third-stage larvae. The experiment in a line: In vitro assay 7: Litomosoides sigmodontis L3 (LTMOSI), motility. The following applies: 72 h, reduction of motility vs negative control, 72 h incubation.
Data set [8] has as its system Cooperia curticei. The experiment in a line: In vitro assay 5: Cooperia curticei (COOPCU), larval mortality. The following applies: 120 h, read-out: activity (percentage of larval mortality).
Procedure: In Vitro Assay 5: Cooperia curticei (COOPCU)
Solvent: Dimethyl Sulfoxide
Approximately 40 nematode larvae (Cooperia curticei) are transferred into a test tube containing the compound solution.
After 5 days percentage of larval mortality is recorded. 100% efficacy means all larvae are killed; 0% efficacy means no larvae are killed.

Chain of C. elegans Slo-1a (Q95V25 whole entry): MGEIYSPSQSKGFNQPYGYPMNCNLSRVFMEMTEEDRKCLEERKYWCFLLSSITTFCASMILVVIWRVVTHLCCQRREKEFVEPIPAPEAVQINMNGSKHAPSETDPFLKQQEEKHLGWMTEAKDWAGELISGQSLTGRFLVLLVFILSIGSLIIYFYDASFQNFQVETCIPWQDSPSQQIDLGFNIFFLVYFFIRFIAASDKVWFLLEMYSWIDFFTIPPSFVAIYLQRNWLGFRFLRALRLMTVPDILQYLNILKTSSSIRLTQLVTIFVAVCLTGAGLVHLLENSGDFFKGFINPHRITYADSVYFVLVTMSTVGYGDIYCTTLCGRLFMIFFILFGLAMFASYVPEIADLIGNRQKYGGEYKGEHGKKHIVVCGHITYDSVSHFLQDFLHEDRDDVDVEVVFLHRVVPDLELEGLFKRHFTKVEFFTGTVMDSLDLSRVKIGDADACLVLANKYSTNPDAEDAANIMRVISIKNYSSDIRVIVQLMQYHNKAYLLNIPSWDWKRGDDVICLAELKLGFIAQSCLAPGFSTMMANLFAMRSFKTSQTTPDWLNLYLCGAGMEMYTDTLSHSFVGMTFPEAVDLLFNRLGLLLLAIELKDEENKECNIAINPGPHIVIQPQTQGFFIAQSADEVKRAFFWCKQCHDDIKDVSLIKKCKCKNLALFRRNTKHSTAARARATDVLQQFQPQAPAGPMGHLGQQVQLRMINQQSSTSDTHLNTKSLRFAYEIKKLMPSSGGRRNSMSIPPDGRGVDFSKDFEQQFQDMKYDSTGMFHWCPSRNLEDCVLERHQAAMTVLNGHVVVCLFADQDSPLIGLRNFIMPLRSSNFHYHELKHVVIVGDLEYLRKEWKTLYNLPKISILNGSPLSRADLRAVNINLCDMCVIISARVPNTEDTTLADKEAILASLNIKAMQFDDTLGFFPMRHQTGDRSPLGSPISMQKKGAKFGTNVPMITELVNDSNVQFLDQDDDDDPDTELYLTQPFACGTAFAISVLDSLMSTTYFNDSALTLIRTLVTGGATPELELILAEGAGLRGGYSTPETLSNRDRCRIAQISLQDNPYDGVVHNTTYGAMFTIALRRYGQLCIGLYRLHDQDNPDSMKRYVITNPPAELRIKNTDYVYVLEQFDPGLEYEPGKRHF

As a reminder, the EC50 is the concentration needed to bring the measured effect to its halfway point. A word on the chromatographic logP: it is a lipophilicity value derived from retention on a column. Higher therefore signals higher lipophilicity. By mortality is commonly meant the percentage killed. Take `Cc1nn2c(C(C)C)c(C(=O)N[C@H]3CCOc4ccccc43)cnc2c1-c1c(F)ccc(F)c1F` [Example 253]: the EC50 in data set [1] is less than 0.1 µg/mL; in data set [5], 1.26 nM; in data set [6] it was less than 0.1 µg/mL; in data set [7], less than 0.1 µg/mL. The chromatographic logP in data set [2] worked out at 4.32. In addition, in data set [3], the inhibition at 10 µg/mL was more than 80%. The mortality at 4 ppm in data set [4] amounted to 80%.

On to `Cc1nn2c(C3CC3)c(C(=O)N[C@H]3CCc4ccccc43)cnc2c1-c1c(F)ccc(Cl)c1F` [Example 436], for which the mortality at 20 ppm in data set [8] and in data set [4] was 80% each time. For the same compound, the EC50 in data set [1] was less than 0.1 µg/mL; in data set [5], 1.58 nM; in data set [6], less than 0.1 µg/mL; in data set [7], less than 0.1 µg/mL. The chromatographic logP in data set [2] came to 4.18. Also, the inhibition at 1 µg/mL in data set [3] was more than 80%. Moreover, the inhibition at 10 µg/mL in data set [3] is more than 80%.

With `COc1c(F)cc(F)c(-c2c(C)nn3c(N4CCOCC4)c(C(=O)N[C@H]4CCOc5ccccc54)cnc23)c1F` [Example 531], the mortality at 20 ppm in data set [8] and in data set [4] was 100% throughout. The EC50 in data set [1] was less than 0.1 µg/mL; in data set [5], 1 nM; in data set [6], less than 0.1 µg/mL; in data set [7] it was less than 0.1 µg/mL. The chromatographic logP in data set [2] amounted to 2.88. The inhibition at 1 µg/mL in data set [3] is more than 80%.

In the case of `CCc1c(C(=O)N[C@H]2CCOc3ccccc32)cnc2c(-c3c(F)ccc(Cl)c3F)c(C)nn12` [Example 489], the “activity (percentage of larval mortality)” value in data set [4] (application rate 20 ppm, after 5 days) is reported as 90%. Also, the pE50 in data set [5] (CHO cells expressing C. elegans Slo-1a, voltage sensitive dye, FLIPR Tetra, negative decadic logarithm of EC50) was determined as 8.8.

As to `Cc1nn2c(C(C)C)c(C(=O)N[C@H]3CCOc4ccccc43)cnc2c1-c1cc(Cl)cc(Cl)c1Cl` [Example 234], the mortality at 20 ppm in data set [8] and in data set [4] was 90% throughout. Further, the EC50 in data set [1] is less than 0.1 µg/mL; in data set [5], 1.26 nM; in data set [6], less than 0.1 µg/mL; in data set [7], less than 0.1 µg/mL. Also, in data set [2], the chromatographic logP came to 5.48. For the same compound, the inhibition at 1 µg/mL in data set [3] was more than 80%. The inhibition at 10 µg/mL in data set [3] was more than 80%.

For `Cc1nn2c(N3CCOCC3)c(C(=O)N[C@H]3CCOc4ccccc43)cnc2c1-c1cccc(C(F)(F)F)c1Cl` [Example 532], the mortality at 20 ppm stood at 100% in data set [8] and 90% in data set [4]. Also, the chromatographic logP in data set [2] worked out at 5.59. Also, the EC50 was 1 nM in data set [5] and less than 0.1 µg/mL in data set [6].

For `CNc1c(C(=O)N[C@H]2CCOc3ccccc32)cnc2c(-c3cccc(Cl)c3Cl)c(C)nn12` [Example 548], the mortality at 20 ppm in data set [8] and in data set [4] was 90% in each case. The chromatographic logP in data set [2] was determined as 4.18. Also, the EC50 in data set [5] is 6.31 nM; in data set [6], less than 0.1 µg/mL.

With `Cc1nn2c(C3CC3)c(C(=O)N[C@H]3CCOc4ccccc43)cnc2c1-c1cccc2c1CCN2C` [Example 474], the mortality at 20 ppm in data set [8] is 90%. Also, the EC50 in data set [1] was less than 0.1 µg/mL; in data set [5], 6.31 nM; in data set [6], less than 1 µg/mL; in data set [7] it was less than 0.1 µg/mL. Besides, the chromatographic logP in data set [2] came out at 3.25. Besides, the inhibition at 10 µg/mL in data set [3] is more than 80%.

For `Cc1nn2c(C3CC3)c(C(=O)N[C@H]3CCOc4ccccc43)cnc2c1-c1cccc(Cl)c1Cl` [Example 473], the mortality at 20 ppm in data set [8] was determined as 90%. Further, the EC50 in data set [1] was less than 0.1 µg/mL; in data set [5], 0.501 nM; in data set [6], less than 0.1 µg/mL; in data set [7] it was less than 0.1 µg/mL. Further, the chromatographic logP in data set [2] was found to be 4.07. In addition, the inhibition at 1 µg/mL in data set [3] was more than 80%. Also, the inhibition at 10 µg/mL in data set [3] is more than 80%.

Turning to `Cc1nn2c(C3CC3)c(C(=O)N[C@H]3CCOc4ccccc43)cnc2c1-c1cccc(F)c1Cl` [Example 472], in data set [8], the mortality at 20 ppm came out at 80%. Further, the EC50 in data set [1] is less than 0.1 µg/mL; in data set [5], 1.58 nM; in data set [6], less than 0.1 µg/mL; in data set [7] it was less than 0.1 µg/mL. The chromatographic logP in data set [2] is 3.72. In addition, the inhibition at 1 µg/mL in data set [3] was more than 80%. The mortality at 4 ppm in data set [4] is 80%.

Turning to `Cc1nn2c(N3CCOCC3)c(C(=O)N[C@H]3CCOc4ccccc43)cnc2c1-c1cccc(Cl)c1Cl` [Example 517], the mortality at 20 ppm in data set [8] and in data set [4] was 100% in each case. For the same compound, the EC50 is less than 0.1 µg/mL in data set [1], 0.631 nM in data set [5], less than 0.1 µg/mL in data set [6] and less than 0.1 µg/mL in data set [7]. Also, the chromatographic logP in data set [2] is 3.51. Besides, the inhibition at 1 µg/mL in data set [3] was more than 80%. The inhibition at 10 µg/mL in data set [3] is more than 80%.

With `Cc1nn2c(C(C)C)c(C(=O)N[C@H]3CCOc4ccccc43)cnc2c1-c1cccc2c1CCN2C` [Example 461], the mortality at 20 ppm was 90% in data set [8] and 80% in data set [4]. The EC50 in data set [1] is less than 0.1 µg/mL; in data set [5], 2 nM; in data set [6] it was less than 1 µg/mL; in data set [7] it was less than 0.1 µg/mL. The chromatographic logP in data set [2] came out at 4.11. The inhibition at 1 µg/mL in data set [3] was more than 80%. The inhibition at 10 µg/mL in data set [3] is more than 80%.

For the compound `COc1ccc(F)c(-c2c(C)nn3c(C(C)C)c(C(=O)N[C@H]4CCOc5ccccc54)cnc23)c1F` [Example 232], the mortality at 20 ppm in data set [8] was found to be 80%. Besides, the EC50 in data set [1] was less than 0.1 µg/mL; in data set [5], 5.01 nM; in data set [6] it was less than 1 µg/mL; in data set [7] it was less than 0.1 µg/mL. For the same compound, in data set [2], the chromatographic logP was 4.04. Besides, the inhibition at 10 µg/mL in data set [3] was more than 80%.

As for `Cc1nn2c(C(C)C)c(C(=O)N[C@H]3CCOc4ccccc43)cnc2c1-c1cccc(N(C)C)c1F` [Example 260], the mortality at 20 ppm in data set [8] stood at 90%; in data set [4], 80%. In data set [2], this compound showed a chromatographic logP of 4.18. Besides, the inhibition at 1 µg/mL in data set [3] was more than 80%. For the same compound, in data set [3], the inhibition at 10 µg/mL is more than 80%. For the same compound, the results for the EC50 in data set [5] and in data set [6] were 3.16 nM and less than 1 µg/mL, respectively.

With `Cc1nn2c(C(C)C)c(C(=O)N[C@H]3CCOc4ccccc43)cnc2c1-c1cc(Cl)cc(Cl)c1F` [Example 262], the mortality at 20 ppm in data set [8] was found to be 90%. Besides, the EC50 in data set [1] is less than 0.1 µg/mL; in data set [5], 0.501 nM; in data set [6] it was less than 0.1 µg/mL; in data set [7], less than 0.1 µg/mL. Further, the chromatographic logP in data set [2] turned out to be 5.36. The inhibition at 1 µg/mL in data set [3] was more than 80%. The inhibition at 10 µg/mL in data set [3] was more than 80%.

For `COc1cc(-c2c(C)nn3c(C(C)C)c(C(=O)N[C@H]4CCOc5ccccc54)cnc23)ccc1F` [Example 244], the mortality at 20 ppm in data set [8] is 90%. In addition, the EC50 in data set [1] is less than 0.1 µg/mL; in data set [5], 6.31 nM; in data set [6] it was less than 1 µg/mL; in data set [7], less than 0.1 µg/mL. In addition, the chromatographic logP in data set [2] is 4.32. Besides, in data set [3], the inhibition at 1 µg/mL is more than 80%. The inhibition at 10 µg/mL in data set [3] was more than 80%.

For `Cc1nn2c(C(C)C)c(C(=O)N[C@H]3CCOc4ccccc43)cnc2c1-c1cc(Cl)ccc1F` [Example 256], the mortality at 20 ppm in data set [8] and in data set [4] was 80% each time. For the same compound, the EC50 in data set [1] was less than 0.1 µg/mL; in data set [5] it was 2.51 nM; in data set [6], less than 0.1 µg/mL; in data set [7], less than 0.1 µg/mL. For the same compound, the chromatographic logP in data set [2] came out at 4.87.

The record behind these values is patent US11001590B2, “Pyrazolopyrimidine derivatives” (BAYER ANIMAL HEALTH GMBH, priority 2016, dated 2021).
